From patent publication US20250243176A1, “(S)-1-(1-ACRYLOYLPIPERIDIN-3-YL)-2-FLUORO-5,6,7,8,9,10-HEXAHYDROCYCLO HEPTA[B]INDOLE-4-CARBOXAMIDE, AND RELATED CRYSTALLINE FORMS, COMPOSITIONS, AND METHODS THEREOF” (GB005, Inc., priority 2021, published 2025) come the findings set out here.

The Tmax is the time from dosing to the highest level. A word on the inhibition: it is the drop in the measured response relative to a control, in per cent. A lower inhibition goes with little suppression.

Each structure is given as a SMILES string. “Also recorded” adds a separate entry of the source.

The nature of data set [1]: Phase 1 multiple ascending dose plasma pharmacokinetics. The note with it: both sexes, human, oral, MAD cohort, 15 mg once daily for 10 days, fed. The data set is classed as in vivo.
The test system of data set [2] is BTK. Briefly: BTK inactivation kinetics in peripheral and CNS tissue. The source says: (§1) (S)-1-(1-acryloylpiperidin-3-yl)-2-fluoro-5,6,7,8,9,10-hexahydrocyclohepta[b]indole-4-carboxamide, hereinafter referred to as “Compound 1”, is an orally available, selective, potent inhibitor of Bruton's tyrosine kinase (BTK), thereby providing potential treatment options in BTK-driven diseases. The potency of Compound 1 for BTK inhibition is in the nM range in both cell-free enzymatic and whole blood functional assays.

In data set [3] the target is T1, TXK (Homo sapiens, UniProt P42681).
T1 sequence (P42681 1-527): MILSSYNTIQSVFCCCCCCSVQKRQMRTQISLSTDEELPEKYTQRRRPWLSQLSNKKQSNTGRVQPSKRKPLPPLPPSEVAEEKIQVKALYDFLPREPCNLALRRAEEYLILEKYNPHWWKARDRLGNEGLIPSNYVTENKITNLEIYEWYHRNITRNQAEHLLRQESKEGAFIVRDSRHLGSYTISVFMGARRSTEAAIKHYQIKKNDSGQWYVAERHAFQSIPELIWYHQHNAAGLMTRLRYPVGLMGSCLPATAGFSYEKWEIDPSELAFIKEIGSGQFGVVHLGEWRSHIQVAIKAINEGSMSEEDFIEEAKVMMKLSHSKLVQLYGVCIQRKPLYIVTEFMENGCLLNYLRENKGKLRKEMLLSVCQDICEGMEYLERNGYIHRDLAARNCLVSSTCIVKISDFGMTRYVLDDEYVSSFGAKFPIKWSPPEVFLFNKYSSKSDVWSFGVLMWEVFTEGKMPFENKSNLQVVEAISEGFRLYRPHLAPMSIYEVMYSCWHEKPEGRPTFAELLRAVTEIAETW
Briefly: Kinome scan, TXK. In kind it is biochemical.
Excerpt: as §1

Data set [4] deals with T2, TEC (Homo sapiens, UniProt P42680).
T2 sequence (P42680 1-631): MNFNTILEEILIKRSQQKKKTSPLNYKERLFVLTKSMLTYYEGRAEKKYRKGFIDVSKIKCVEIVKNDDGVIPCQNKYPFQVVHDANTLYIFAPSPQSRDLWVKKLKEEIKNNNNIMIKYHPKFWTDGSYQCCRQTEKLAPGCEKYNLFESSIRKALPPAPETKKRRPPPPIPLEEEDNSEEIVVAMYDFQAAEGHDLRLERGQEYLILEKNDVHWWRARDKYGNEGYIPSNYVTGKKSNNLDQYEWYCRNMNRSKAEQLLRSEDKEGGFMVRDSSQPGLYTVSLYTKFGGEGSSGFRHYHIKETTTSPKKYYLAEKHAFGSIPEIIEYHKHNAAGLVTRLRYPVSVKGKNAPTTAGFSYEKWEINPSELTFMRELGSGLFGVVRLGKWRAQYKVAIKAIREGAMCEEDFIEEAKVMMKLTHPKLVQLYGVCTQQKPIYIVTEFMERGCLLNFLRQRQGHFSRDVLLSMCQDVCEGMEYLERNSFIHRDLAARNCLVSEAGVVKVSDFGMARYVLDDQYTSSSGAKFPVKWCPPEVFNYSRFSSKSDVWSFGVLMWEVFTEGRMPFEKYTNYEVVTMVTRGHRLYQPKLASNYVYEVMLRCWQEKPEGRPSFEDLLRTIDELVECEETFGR
Kind of data set: Kinome scan, TEC. In kind it is biochemical.
Excerpt: as §1

Data set [5] is described as follows: pKa determination, Sirius T3 titrator (Form III). The data set is classed as physicochemical. The conditions noted are these: titrations at 25° C., acidic and basic sites. As for the experimental part: In each of the following studies (Examples 6-10), the starting material was Compound 1 (free form, not salt) Form III. The material was a light yellow solid, comprising non-hygroscopic irregular shaped crystal with aggregation. The same analytical methods as described in Example 1 were employed.
pKa was assessed using Sirius T3 titrator. The acidic and basic sites were very weak, and undetectable by Sirius T3.

Data set [6] can be described thus: Phase 1 safety and tolerability. In kind it is in vivo, human. The conditions noted are these: healthy subjects, blinded safety data. How it is done: The study investigates the administration of Compound 1 to healthy human subjects, to evaluate the safety, tolerability and PK of single and multiple-escalating doses. Additional objectives include assessing the effect of formulation on PK, the effect of food on PK, the effect of a CYP3A inhibitor on PK and the effect of Compound 1 on CYP3A activity. PK parameters including AUC, AUC, Cmax, and Tmax are determined. An additional exploratory objective evaluates pharmacodynamics, as the time-course of BTK inhibition. The study is conducted with up to 144 healthy male and female subjects, aged 18-55 years, with a body weight over 48 kg, BMI 18.5-30.0 kg/m^2, with no clinically significant abnormalities.
Safety is assessed throughout the study and PK and PD are characterized using serial blood samples collected up to 48 hours post-dose for Compound 1 plasma concentrations, BTK target occupancy (TO) and target engagement (TE). Cerebrospinal fluid (CSF) samples are collected at 2 hours post-dose to characterize the relationship between Compound 1 plasma concentrations and CNS penetrance (CSF/Unbound plasma concentration). Compound 1 PK parameters (e.g., AUClast, AUCinf, Cmax, Tmax, t1/2) are estimated by standard noncompartmental methods. […]

For the compound `C=CC(=O)N1CCC[C@@H](c2c(F)cc(C(N)=O)c3[nH]c4c(c23)CCCCC4)C1` [Compound 1, (S)-1-(1-acryloylpiperidin-3-yl)-2-fluoro-5,6,7,8,9,10-hexahydrocyclohepta[b]indole-4-carboxamide], the Tmax in data set [1] was determined as 1.5 h. Further, in data set [2], the BTK inactivation kinetics result is “rapid”. Also, the inhibition at 1 µM in data set [3] and in data set [4] was over 50% throughout. Besides, the pKa result in data set [5] is given as “undetectable”. Besides, the safety and tolerability result in data set [6] (MAD cohort, 15 mg once daily for 10 days, fed) is listed as “generally well tolerated with no serious adverse events or early study discontinuations reported”; in data set [6] (SAD cohorts, single dose 5 to 200 mg, fed (moderate-fat meal)), “generally well tolerated with no serious adverse events or early study discontinuations reported; also recorded: well tolerated across the dose range”.
